Data set [1] deals with A549 cells. Description: Protein synthesis, [14C]-leucine uptake, A549 cells. The data set is classed as cell-based, human. The settings on record: 72 hours. From the text: (§1) (a) Compounds A and B were identified from a bark sample of Aglaia leptantha through their ability to inhibit production of Tumour Necrosis Factor-α (TNF-α) by THP-1 human promonocytic leukemia cells (Tsuchiya, et al, Int. J. Cancer, 1980, 26(2):171-6) activated with lipopolysaccharide (LPS). Table 4 summarises the results comparing the activity of Compounds A and B for inhibition of TNF-α production to their effects on general cell metabolism measured using WST-1 reduction, DNA synthesis and protein synthesis assays for THP-1 cells. […] For comparison, the effects of Compounds A and B on A549 lung epithelial carcinoma cells (Leiber et al, Int. J. Cancer, 1976, 17(1)-62-70) were also measured and the data is also included in Table 4.

Data set [2] concerns Tumour Necrosis Factor-α (TNF-α). In words: Inhibition of TNF-α production by LPS-activated THP-1 cells (sandwich ELISA). It counts as cell-based, human. As to conditions: 18 hours.
Text: as §1
(In an ELISA, binding on a coated surface is turned into a signal by an enzyme label.)

Data set [3] concerns THP-1 cells. In words: DNA synthesis, [14C]-thymidine uptake, THP-1 cells. The data set is classed as cell-based, human. The settings on record: 48 hours.
Text: as §1

For data set [4], the system named is THP-1 cells. Description: Protein synthesis, [14C]-leucine uptake, THP-1 cells. The data set is classed as cell-based, human. As to conditions: 48 hours.
Text: as §1

Data set [5] deals with THP-1 cells. Description: WST-1 reduction by THP-1 cells. It counts as cell-based, human.
Text: as §1
A general note: Tetrazolium assays rely on reduction of a dye to a coloured formazan, in cell work by metabolically active cells.

Data set [6] has as its system A549 cells. In words: DNA synthesis, [14C]-thymidine uptake, A549 cells. The data set is classed as cell-based, human. The settings on record: 72 hours.
Text: as §1

Data set [7] has as its system K562 leukemic cells. Description: DNA content analysis (cell cycle) of K562 leukemic cells. The data set is classed as cell-based, human. The settings on record: K562, 10-15 nM, 3 days. The procedure:
K562 cells were cultured for 3 days with the indicated concentration of Compounds A or B then collected and fixed in 70% ethanol prior to staining with propidium iodide and DNA content determined by flow cytometry. The numbers indicate the % of cells in G0/G1, S and G2/M phases of the cell cycle respectively relative to all cells with ≧2N DNA content.

The test system of data set [8] is Intercellular Adhesion Molecule-1 (ICAM-1). In words: IL-1-induced ICAM-1 surface expression by A549 cells (Delfia). It counts as cell-based, human. The settings on record: 24 hours, read-out: IC50 ICAM-1 Production.
Text: as §1

The test system of data set [9] is PC3. Description: Cytotoxic activity, sub-diploid DNA content by flow cytometry (propidium iodide). It counts as cell-based, human. The settings on record: PC3, 6 days; read-out: LC50 (6 day cultures). The procedure:
(§2) (b) Compound A was assessed for cytotoxic and cytostatic activity against a panel of cell lines derived from a variety of human tumour types in addition to THP-1 and A549 cells (Table 5). These included K562 leukemic cells (Lozzio and Lozzio, 1975, Blood 45:321-34), PC3 prostate tumour cells (Kaighn et al., 1979, Invest. Urol. 17:16-23) and SF268 glioblastoma cells (Westphal et al, 1985, Biochem. Biophys. Res. Commun., 132:284-9). […] However, the cytotoxic potency of Compound A increased dramatically after 6 days of culture for the K562, A549 and SF268 cells.

Data set [10] concerns K562. Described as above. It counts as cell-based, human. As to conditions: K562, 6 days; read-out: LC50 (6 day cultures). The procedure: as §2
Data set [11] relates to SF268. The description is as above. The data set is classed as cell-based, human. The settings on record: SF268, 6 days; read-out: LC50 (6 day cultures). The procedure: as §2
The test system of data set [12] is A549. The data set is described as above. The data set is classed as cell-based, human. As to conditions: A549, 6 days; read-out: LC50 (6 day cultures). The procedure:
as §2

Data set [13] concerns THP-1. The data set is described as above. It counts as cell-based, human. As to conditions: THP-1, 6 days; read-out: LC50 (6 day cultures). The procedure: as §2
For data set [14], the system named is A549. Description: Cytostatic activity, relative cell number by YOYO-1 DNA dye. As to conditions: Homo sapiens, 72 h; A549, lung; read-out: GI50 (3 day cultures). The data set is classed as cell-based, human. The procedure:
as §2

Data set [15] relates to A549 cells. Description: Cell death as loss of membrane integrity, YOYO-1 uptake. The data set is classed as cell-based. The settings on record: Homo sapiens, A549, 72 h, read-out: LC50. From the text: (§3) (a) Table 8 compares the cytostatic and cytotoxic effects of Compound A to three previously identified 1H-cyclopenta[b]benzofuran lignans that lack the dioxanyloxy group at the C6-position. The reference compounds are: Rocaglaol (Reference Compound 1) (Ohse et al., J Nat Prod, 1996, 59(7):650-52); 4′-Demethoxy-3′,4′-methylenedioxyrocaglaol (Reference Compound 2) and Methyl 4′-demethoxy-3′,4′-methylenedioxyrocaglate (Reference Compound 3) (Lee et al., Chem Biol Interact, 1998, 115(3):215-28).

The test system of data set [16] is THP-1 cells. The data set is described as above. The data set is classed as cell-based. As to conditions: Homo sapiens, THP-1, 72 h, read-out: LC50.
Text: as §3

Data set [17] deals with A549 cells. In words: Effect on cell cycle arrest and cell death induced by anti-cancer agents, DNA content analysis. As to conditions: 3 days. The data set is classed as cell-based. As to the method: A549 cells in 6 well plates were cultured for 3 days in the presence or absence of 10 nM Compound A together with 0.1 μM camptothecin, 10 μM vinblastin, 1 μM paclitaxel or 1 μM staurosporine as indicated. The cells were then collected and fixed in 70% ethanol prior to staining with propidium iodide and DNA content determined by flow cytometry. The numbers indicate the % of cells in the various cell cycle phases relative to all cells with ≧2N DNA content and also the % dead cells (ie. subdiploid ≦2N cells) to the left of the dotted marker that arose during the culture period.
This was examined in more detail using DNA content analysis to specifically measure cell cycle progression and cell death. In this experiment in addition to camptothecin and paclitaxel cells were also treated with vinblastin (another microtubule inhibitor) (Sorger et al., 1997, supra) and staurosporine (a kinase inhibitor) (Gescher, Crit Rev Oncol Hematol., 2000, 34(2):127-35).

Data set [18] relates to A549 cells. Description: Senescence-associated β-galactosidase (SA-β-gal) activity staining. The data set is classed as cell-based, human. The settings on record: A549, 250 nM doxorubicin, 10 days. The procedure: A549 cells were seeded at 10,000 cell/well in 6 well plates in the presence or absence of varying concentrations of Compound A (10-50 nM) or 250 nM doxorubicin for 10 days prior to their processing and staining overnight for senescence-associated β-galactosidase activity as described previously (Dimri et al., 1995, Proc Natl Acad Sci USA 1995 92(20):9363-7). […] PC, phase contrast microscopy. BF, bright field microscopy Magnification×200.
This was evaluated further by measuring senescence-associated β-galactosidase (SA-β-gal) activity, a biomarker previously described to correlate well with senescence of human cells (Dimri et al., Proc Natl Acad Sci USA 1995 92(20):9363-7). […] Therefore, in addition to Compound A A549 cells were also treated with doxorubicin as an experimental control.

Data set [19] relates to THP-1 cells. Description: DNA content analysis (cell cycle and viability) of THP-1 cells. The data set is classed as cell-based, human. The settings on record: THP-1, 1000 nM paclitaxel, 2 days. As to the method:
THP-1 cells were cultured for 2 days with the indicated concentration of Compound A or 1000 nM paclitaxel then collected and fixed in 70% ethanol prior to staining with propidium iodide and DNA content determined by flow cytometry. The numbers indicate the % of cells in the various cell cycle phases relative to all cells with ≧2N DNA content and also the % dead cells (ie. subdiploid≦2N cells) to the left of the marker (the vertical line) that arose during the culture period.

Where [20] appears, read: THP-1 leukemic cells, cultured with compound for 3 days, read-out: IC50 (reduction of WST-1).

`COC(=O)[C@H]1[C@@H](O)[C@@]2(O)c3c(OC)cc(OC4OC(C(O)CO)COC4OC)cc3O[C@@]2(c2ccc(OC)cc2)[C@@H]1c1ccccc1` (single isomer, unassigned) [Compound B]: the half-inhibitory concentration (IC50) in data set [1] was determined as 0.01 µM; in data set [2], 0.015 µM; in data set [3], 0.003 µM; in data set [4], 0.003 µM; in data set [5] (THP-1 cells, 18 hours of culture, read-out: IC50 WST-1 Reduction), 0.04 µM; in data set [5] (setting [20]), 0.0015 µM. Moreover, the half-maximal inhibitory concentration (IC50) stood at 0.004 µM in data set [6] and 5 µM in data set [8]. In addition, the “cell cycle phase accumulation” value in [7] is given as “characteristic accumulation of cells in G2/M phases of the cell cycle”. Besides, the CC50 was determined as 0.012 µM in data set [9]; 0.015 µM in data set [10]; 0.022 µM in [11]; 0.012 µM in data set [12]; 0.015 µM in [13].
Consider `COC(=O)[C@H]1[C@@H](O)[C@@]2(O)c3c(OC)cc(OC4OC(C(COC(C)=O)OC(C)=O)COC4OC)cc3O[C@@]2(c2ccc(OC)cc2)[C@@H]1c1ccccc1` (stereo partly drawn) [Compound A′], for which, in data set [5] (setting [20]), the IC50 was determined as 0.0003 µM.
For `COC(=O)[C@H]1[C@@H](O)[C@@]2(O)c3c(OC)cc(OC4OC(C(COC(C)=O)OC(C)=O)COC4OC)cc3O[C@@]2(c2ccc(OC)cc2)[C@@H]1c1ccccc1` (stereo partly drawn) [Compound B′], the IC50 in data set [5] (setting [20]) is 0.0007 µM.
In the case of `COc1ccc(C23Oc4cc(OC)cc(OC)c4C2(O)C(O)CC3c2ccccc2)cc1` (stereo not drawn) [Reference Compound 1, Rocaglaol], in [14], the 50% growth inhibitory concentration (GI50) was found to be 3.98 µM. Further, the CC50 in data set [15] and in data set [16] was over 5 µM each time.
For the compound `COc1cc(OC)c2c(c1)OC1(c3ccc4c(c3)OCO4)C(c3ccccc3)CC(O)C21O` (stereo not drawn) [Reference Compound 2, 4′-Demethoxy-3′,4′-methylenedioxyrocaglaol], in [14], the GI50 turned out to be 0.389 µM. The CC50 in data set [15] and in [16] was over 5 µM in each case.
On to `COC(=O)C1C(O)C2(O)c3c(OC)cc(OC)cc3OC2(c2ccc3c(c2)OCO3)C1c1ccccc1` (stereo not drawn) [Reference Compound 3, Methyl 4′-demethoxy-3′,4′-methylenedioxyrocaglate], for which, in [14], the GI50 came to 0.056 µM. The CC50 in [15] and in data set [16] was over 5 µM each time.
`CC[C@@]1(O)C(=O)OCc2c1cc1n(c2=O)Cc2cc3ccccc3nc2-1` [camptothecin, reference compound]: in [17] (A549, 0.1 μM camptothecin), the “cell cycle phase accumulation” value is listed as “accumulation of cells in S phase of the cell cycle”.
Regarding `COc1cccc2c1C(=O)c1c(O)c3c(c(O)c1C2=O)C[C@@](O)(C(=O)CO)C[C@@H]3O[C@H]1C[C@H](N)[C@H](O)[C@H](C)O1` [doxorubicin, reference compound], the SA-β-gal activity result in [18] is reported as “exhibited SA-β-gal activity”.
With `CC(=O)O[C@H]1C(=O)[C@@]2(C)[C@H]([C@H](OC(=O)c3ccccc3)[C@]3(O)C[C@H](OC(=O)[C@H](O)[C@@H](NC(=O)c4ccccc4)c4ccccc4)C(C)=C1C3(C)C)[C@]1(OC(C)=O)CO[C@@H]1C[C@@H]2O` [paclitaxel, reference compound], the “cell cycle phase accumulation” value was “caused cells to accumulate in the G2/M phases of the cell cycle” in data set [19] and “majority of cells arresting in the G2/M phases of the cell cycle” in data set [17] (A549, 1 μM paclitaxel).
In the case of `CC[C@]1(O)C[C@@H]2CN(CCc3c([nH]c4ccccc34)[C@@](C(=O)OC)(c3cc4c(cc3OC)N(C)[C@H]3[C@@](O)(C(=O)OC)[C@H](OC(C)=O)[C@]5(CC)C=CCN6CC[C@]43[C@@H]65)C2)C1` [vinblastin, reference compound], the “cell cycle phase accumulation” value in data set [17] (A549, 10 μM vinblastin) is given as “majority of cells arresting in the G2/M phases of the cell cycle”.

A word on the IC50: it is the concentration at which inhibition is half-maximal. One may read the GI50 as the concentration that inhibits growth by half.

(Values after patent US6710075B2, “Therapeutic compounds and methods” (The Government of the State of Sarawak, Malaysia, priority 2000, dated 2004).)
